We go through one sequence from article PMC5855688, “BC-Box Motif-Mediated Neuronal Differentiation of Somatic Stem Cells” (International Journal of Molecular Sciences, 2018).

Assay [1] relates to skin-derived precursors (SKPs). Nature of the assay: Whole-cell patch-clamp electrophysiology. The settings on record: five days after peptide addition at 3 μM, holding potential −80 mV, steps of 20 mV from −100 to 100 mV, VHL(157–168) vs VHL(157–171) p < 0.01. Format: cell-based, rat (neonate Wistar). The protocol: (§1) Rodent skin-derived precursor cells (SKPs), which can differentiate to neurons, were used. SKPs were previously isolated from the back dermis of neonate Wistar rats by the authors. These cells were cultured in growth medium composed of DMEM/F12 (1:1; Gibco, Grand Island, NY, USA) containing 2% B27 supplement (Gibco), 20 ng/mL epidermal growth factor (EGF; Upstate Biotechnology, Lake Placid, NY, USA), and 40 ng/mL bFGF (PeproTech EC Ltd., Rocky Hill, NJ, USA) in a humidified incubator at 37 °C with 5% CO2. The floating clusters of cultured cells were centrifuged and dissociated into a single-cell suspension by use of a Pasteur pipette with a flame-polished tip. These single cells were then re-suspended into at a concentration of 50,000 cells/mL for passage or experiments.
(§2) For neuronal differentiation, cells were dissociated into a single-cell suspension by use of a Pasteur pipette and re-suspended into a concentration of 50,000 cells/mL in DMEM/F12 without serum, neurotrophic factors or growth factors. Then, the cells were cultured on poly-L-lysine-coated dishes or cover glasses, and the synthesized peptides at concentrations from 1 to 5 μM were added to the culture medium and delivered into the cells. Three days or more later, the cells were used for morphological, immunocytochemical, immunohistochemical, electrophysiological and immunoprecipitation studies, as well as for Western blot analysis.
To record fast sodium and delayed rectifier potassium currents, we prepared extracellular and intracellular solutions as described previously. […] For recordings and data analysis we used CEZ-2300 (Nihon Kohden, Tokyo, Japan) and pCLAMP 6.0 software (Axon Instruments, Burlingame, CA, USA). Linear components of leak and capacitive currents were reduced by analogue circuitry and then canceled by the P/N method. Signals were sampled every 20 μs, and currents were filtered at 5 kHz. Data were additionally processed with Origin 5.0 (Microcal, Northhampton, MA, USA).
For orientation: Patch clamp records ionic current or voltage across a cell membrane.

Another assay deals with rat brain. Kind of assay: Immunohistochemistry (NeuN) of transplanted peptide-treated cells in rat brain. Format: in vivo, rat (Wistar). The settings on record: 1 × 10^5 peptide-treated cells transplanted into rat brain, 6 weeks; mean ± SEM; vs VHL(157–171): p < 0.01 for VHL(157–168), p < 0.005 for TAT. The protocol: To evaluate neuronal differentiation of transplanted cells in rat brains, immunohistochemical study was performed as described previously. Before grafting, cells were preincubated with red fluorescence PKH26PCL (Sigma, St. Louis, MO, USA). […] Rats were anesthetized with isoflurane before surgery, and 1 × 10^5 cells were transplanted into rat brain. The rats were perfused with periodate-lysine-paraformaldehyde solution 6 weeks after the transplantation. Their brains were subsequently dissected and postfixed in the same medium for 2 h, cryopreserved in 30% sucrose for 12 h, and then embedded in Tissue Tek OCT compound (Sakura, Tokyo, Japan). Cryostat coronal sections of 14-μm thickness were prepared for immunohistochemistry. For immunostaining, sections were incubated with primary antibody, anti-NeuN antibody, and then incubated in secondary antibody, FITC-conjugated anti-rabbit IgG. Counterstaining was done with DAPI. In immohistochemistry, observations were made with a confocal immunofluorescence microscope (FV300, Olympus, Tokyo, Japan).
Wistar rats (Clea, Tokyo, Japan) were used in all experiments and housed in a temperature controlled room on a 12-h day/night cycle with free access to food and water. All animal experimental procedures were approved by the Institutional Animal Use Committee of Yokohama City University (ID 153, 1 April 2015) and were in accordance with National Institutes of Health guidelines for care and use of laboratory animals.

Assay [2] deals with skin-derived precursors (SKPs). Kind of assay: Western blot analysis of neuronal markers in NDD peptide-treated cells. Format: cell-based, rat (neonate Wistar). The settings on record: Figure 6A. The protocol:
as §1, §2
Cultured cells were washed 3 times in cold PBS and then scraped into ice-cold PBS. After incubation on ice for 10 min, the cells were lysed with lysis buffer and centrifuged, after which the supernatants were collected. Each sample was separated by SDS-PAGE under reducing conditions and transferred electrophoretically to nitrocellulose filters. Non-specific binding of antibody was blocked by incubation with 5% donkey serum for 1 h. Western blots were probed with anti-MAP2 antibody, anti-NFH antibody, anti-ChAT antibody, anti-GAD antibody, anti-rhodopsin antibody, anti-TH antibody, and anti-elongin C antibody (Santa Cruz, San Diego, CA, USA) followed by horseradish peroxidase-conjugated secondary antibodies. Protein bands were detected by using a chemical luminescence detection system (ECL Plus Western Blotting Reagent Pack, Amersham, Hemel Hempstead, UK). Images were analyzed with LAS-1000 (Fujifilm, Tokyo, Japan), and the density of the bands was determined by using Image Gauge software (Fujifilm).

The test system of a further assay is STAT3. Nature of the assay: Western blotting of STAT3 before and after peptide treatment. Format: cell-based, rat. The settings on record: Western blot, Figure 5B, p < 0.01. On the technique in general: A western blot detects proteins with antibodies after separation by electrophoresis.
Assay [3] concerns skin-derived precursors (SKPs). Nature of the assay: Neurite outgrowth / morphological evaluation of neuronal differentiation. It counts as cell-based, rat (neonate Wistar). The protocol:
as §1, §2
Neurite outgrowth with length exceeding the diameter of the neuronal soma is often assessed as a morphological index of neuronal differentiation. After a single-cell suspension was made by pipetting, the cells were cultured in DMEN/F12 medium alone at 37 °C in a 5% CO2 incubator. Thereafter, neurite outgrowth was evaluated with the following 4 levels: +++, for above 50% of the cells showing neurite outgrowth; ++, for 20–50% with neurite outgrowth; +, for 5–19% having neurite outgrowth; and −, for below 5% of the cells with neurite outgrowth.

“Also recorded” adds a separate entry of the source.

With “YARAAARQARATLKERCLQVVRSLVK [VHL(157–171), NDD in pVHL: BC-box motif plus five amino acids, conjugated with PTD]”, the “Voltage-gated outward K+ and inward Na+ currents” value in assay [1] is “both large outward potassium currents and fast inward Na^+ currents”. For the same sequence, the “Positive rates of NeuN” value with rat brain is given as 42.5 ± 4.5%. Moreover, the “Expression of ChAT” value in assay [2] (choline acetyltransferase) is listed as “high”. Also, in assay [2] (tyrosine hydroxylase), the “Expression of TH” value was “moderate”. Further, in the assay on STAT3, the STAT3 degradation entry was “JAK2 and STAT3 were indeed degraded”. Moreover, the “Neurite Outgrowth Activity” value is listed as “+++ (above 50% of the cells showing neurite outgrowth)” in assay [3] (BC-box motif plus five C-terminal amino acids peptides, delivered with TAT PTD, 1 to 5 μM) and “showed neurite outgrowth activity to the same extent as VHL(155–171); also recorded: greatest of rate of cells having neurites” in assay [3] (Figure 2A, rates of cells having neurites, peptides at 1 to 5 μM, VHL157–168 vs VHL(157–171) p < 0.005).
